# Measurements taken from patent US7504513B2, “Thiazolyl-benzimidazoles” (Hoffman-La Roche Inc., priority 2006, dated 2009).
# Molecular target: T1, GST-Plk1 (Homo sapiens, UniProt P53350)
# T1 construct: Full-length, active GST-Plk1 was purified from Sf9 insect cells; made in house; host or cells: Sf9 insect cells
# Assay: Biochemical Characterization Assay: HTRF kinase assay, GST-Plk1 phosphorylation of GST-p53
# Conditions: full-length active GST-Plk1, GST-p53 substrate, ATP, 37° C. for 35 minutes, HTRF signal
# Protocol: Full-length, active GST-Plk1 was purified from Sf9 insect cells, and full-length GST-p53 was purified in E. coli. Anti-phospho p53 antibody was purchased from Cell Signaling Technology. Europium-conjugated anti-rabbit antibody was purchased from PerkinElmer Life and Analytical Sciences. APC-conjugated anti-GST antibody was purchased from Prozyme.
# To two microliters of compound (0.6 nM-4 mM) in DMSO or plain DMSO for control wells, 38 microliters of 20 mM HEPES pH 7, 50 mM NaCl, 10 mM MgCl2, 0.5 mM TCEP, 0.1 mM sodium orthovanadate, 0.1 mg/ml BSA, and 0.05% Triton X-100 (Kinase Assay Buffer) were added. Eight microliters of the compound solution were added to a 384-well black microtiter plate, followed by six microliters of GST-p53 (17 ug/ml) and ATP (333 uM) in Kinase Assay Buffer. Six microliters of GST-Plk1 (3 ug/ml) in Kinase Assay Buffer were then added and the solution incubated at 37° C. for 35 minutes. Six microliters of solution containing 43 mM EDTA to stop the reaction and a 1:600 dilution of anti-phospho-p53 antibody in 20 mM HEPES pH 7, 50 mM NaCl, and 0.5 mg/ml BSA (Antibody Binding Buffer) were added and the solution incubated at 37° C. for 30 minutes. Six microliters of solution containing 9 nM europium-conjugated anti-rabbit antibody and 120 nM APC-conjugated anti-GST antibody in Antibody Binding Buffer were then added and the mixture incubated at room temperature for 1.5 hours. The HTRF signal was read on the Envision reader (PerkinElmer Life and Analytical Sciences).
# T1 sequence (P53350 whole entry): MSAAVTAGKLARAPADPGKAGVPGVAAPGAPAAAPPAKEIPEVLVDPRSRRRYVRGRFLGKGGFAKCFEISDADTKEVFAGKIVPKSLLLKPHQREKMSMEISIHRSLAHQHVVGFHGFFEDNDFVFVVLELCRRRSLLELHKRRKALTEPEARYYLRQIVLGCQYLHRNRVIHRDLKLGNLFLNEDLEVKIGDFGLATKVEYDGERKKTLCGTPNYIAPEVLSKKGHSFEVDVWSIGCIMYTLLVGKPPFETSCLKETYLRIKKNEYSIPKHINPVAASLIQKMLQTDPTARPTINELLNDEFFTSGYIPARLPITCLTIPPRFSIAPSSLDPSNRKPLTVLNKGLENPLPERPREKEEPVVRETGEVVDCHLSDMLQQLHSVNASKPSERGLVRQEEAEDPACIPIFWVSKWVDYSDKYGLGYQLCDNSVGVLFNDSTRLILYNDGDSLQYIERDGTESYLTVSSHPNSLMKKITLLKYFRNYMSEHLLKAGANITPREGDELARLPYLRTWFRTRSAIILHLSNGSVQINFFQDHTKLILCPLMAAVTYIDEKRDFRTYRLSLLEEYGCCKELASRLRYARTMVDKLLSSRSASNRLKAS
row,Compound,IC50 [nM]
1,1-(5-Carboxy-4-phenyl-thiazol-2-yl)-1H-benzoimidazole-4-carboxylic acid and 3-(5-carboxy-4-phenyl-thiazol-2-yl)-3H-benzoimidazole-4-carboxylic acid [Example 8],6420
2,2-(4-Hydroxy-benzoimidazol-1-yl)-4-phenyl-thiazole-5-carboxylic acid and 2-(7-hydroxy-benzoimidazol-1-yl)-4-phenyl-thiazole-5-carboxylic acid [Example 7],7470
3,2-(5-Chloro-6-fluoro-benzoimidazol-1-yl)-4-phenyl-thiazole-5-carboxylic acid and 2-(6-chloro-5-fluoro-benzoimidazol-1-yl)-4-phenyl-thiazole-5-carboxylic acid [Example 35],1290
4,2-(5-Chloro-6-methylbenzoimidazol-1-yl)-4-phenylthiazole-5-carboxylic acid and 2-(6-chloro-5-methylbenzoimidazol-1-yl)-4-phenylthiazole-5-carboxylic acid [Example 16],1170
5,2-(5-Methylbenzoimidazol-1-yl)-4-phenylthiazole-5-carboxylic acid and 2-(6-Methylbenzoimidazol-1-yl)-4-phenylthiazole-5-carboxylic acid [Example 4],1550
6,"2-(8H-5,7-Dioxa-1,3-diaza-cyclopenta[b]naphthalen-3-yl)-4-phenyl-thiazole-5-carboxylic acid and 2-(8H-5,7-Dioxa-1,3-diaza-cyclopenta[b]naphthalen-1-yl)-4-phenyl-thiazole-5-carboxylic acid [Example 9]",2620
7,"NC(=O)c1sc(-n2cnc3ccccc32)nc1-c1ccccc1 [Example 3, 2-Benzoimidazol-1-yl-4-phenyl-thiazole-5-carboxylic acid amide]",7360
8,"Cc1cc2ncn(-c3nc(-c4ccccc4)c(C(=O)O)s3)c2cc1C [Example 5, 2-(5,6-Dimethylbenzoimidazol-1-yl)-4-phenylthiazole-5-carboxylic acid]",2490
9,"COc1cc2ncn(-c3nc(-c4ccccc4)c(C(N)=O)s3)c2cc1OC [Example 6, 2-(5,6-Dimethoxy-benzoimidazol-1-yl)-4-phenyl-thiazole-5-carboxylic acid amide]",1380
10,"COc1cc2ncn(-c3nc(-c4ccccc4)c(C(=O)N(C)C)s3)c2cc1OC [Example 10, 2-(5,6-Dimethoxy-benzoimidazol-1-yl)-4-phenyl-thiazole-5-carboxylic acid dimethylamide]",1380
11,"COc1cc2ncn(-c3nc(-c4ccccc4)c(-c4nnn[nH]4)s3)c2cc1OC [Example 12, 5,6-Dimethoxy-1-[4-phenyl-5-(1H-tetrazol-5-yl)-thiazol-2-yl]-1H-benzoimidazole]",1100
12,"COc1cc2ncn(-c3nc(-c4ccccc4)c(C(=O)NC4CC4)s3)c2cc1OC [Example 13, 2-(5,6-Dimethoxy-benzoimidazol-1-yl)-4-phenyl-thiazole-5-carboxylic acid cyclopropylamide]",3310
13,"COc1ccc(-c2nc(-n3cnc4cc(OC)c(OC)cc43)sc2C(=O)O)cc1OC [Example 18, 2-(5,6-Dimethoxy-benzoimidazol-1-yl)-4-(3,4-dimethoxy-phenyl)-thiazole-5-carboxylic acid]",2390
14,"COc1cc2ncn(-c3nc(-c4ccccc4Cl)c(C(=O)O)s3)c2cc1OC [Example 21, 4-(2-Chloro-phenyl)-2-(5,6-dimethoxy-benzoimidazol-1-yl)-thiazole-5-carboxylic acid]",3600
15,"COc1cc2ncn(-c3nc(-c4ccccc4C)c(C(=O)O)s3)c2cc1OC [Example 27, 2-(5,6-Dimethoxy-benzoimidazol-1-yl)-4-o-tolyl-thiazole-5-carboxylic acid]",1620
16,"COc1cc2ncn(-c3nc(-c4cccc5ccccc45)c(C(=O)O)s3)c2cc1OC [Example 32, 2-(5,6-Dimethoxy-benzoimidazol-1-yl)-4-naphthalen-1-yl-thiazole-5-carboxylic acid]",3180

# Now those with a lower IC50, led by results:
row,IC50 [nM],Compound
1,916,"CCNC(=O)c1sc(-n2cnc3cc(OC)c(OC)cc32)nc1-c1ccccc1 [Example 11, 2-(5,6-Dimethoxy-benzoimidazol-1-yl)-4-phenyl-thiazole-5-carboxylic acid ethylamide]"
2,856,"COc1ccc(-c2nc(-n3cnc4cc(OC)c(OC)cc43)sc2C(=O)O)cc1 [Example 28, 2-(5,6-Dimethoxy-benzoimidazol-1-yl)-4-(4-methoxy-phenyl)-thiazole-5-carboxylic acid]"
3,826,2-(5-Methoxy-6-methylbenzoimidazol-1-yl)-4-phenylthiazole-5-carboxylic acid and 2-(6-methoxy-5-methylbenzoimidazol-1-yl)-4-phenylthiazole-5-carboxylic acid [Example 59]
4,781,"COc1cc2ncn(-c3nc(-c4ccsc4)c(C(=O)O)s3)c2cc1OC [Example 25, 2-(5,6-Dimethoxy-benzoimidazol-1-yl)-4-thiophen-3-yl-thiazole-5-carboxylic acid]"
5,772,"O=C(O)c1sc(-n2cnc3ccccc32)nc1-c1ccccc1 [Example 2, 2-(Benzoimidazol-1-yl)-4-phenylthiazole-5-carboxylic acid]"
6,720,2-(5-Chlorobenzoimidazol-1-yl)-4-phenylthiazole-5-carboxylic acid and 2-(6-chlorobenzoimidazol-1-yl)-4-phenylthiazole-5-carboxylic acid [Example 14]
7,657,"COc1cc2ncn(-c3nc(-c4ccc(C)cc4)c(C(=O)O)s3)c2cc1OC [Example 26, 2-(5,6-Dimethoxy-benzoimidazol-1-yl)-4-p-tolyl-thiazole-5-carboxylic acid]"
8,538,"COc1cc2ncn(-c3nc(-c4cccc(F)c4F)c(C(=O)O)s3)c2cc1OC [Example 29, 4-(2,3-Difluoro-phenyl)-2-(5,6-dimethoxy-benzoimidazol-1-yl)-thiazole-5-carboxylic acid]"
9,526,2-[5-(2-Methoxy-ethoxy)-benzo-imidazol-1-yl]-4-phenyl-thiazole-5-carboxylic acid;compound with 2-[6-(2-meth-oxy-ethoxy)-benzo-imidazol-1-yl]-4-phenyl-thiazole-5-carboxylic acid [Example 63]
10,388,2-(5-Hydroxy-benzoimidazol-1-yl)-4-phe-nyl-thiazole-5-car-boxylic acid; compoundwith 2-(6-hydroxy-benzoimidazol-1-yl)-4-phenyl-thiazole-5-carboxylic acid [Example 65]
11,275,"COc1cc2ncn(-c3nc(-c4ccccc4O)c(C(=O)O)s3)c2cc1OC [Example 30, 2-(5,6-Dimethoxy-benzoimidazol-1-yl)-4-(2-hydroxy-phenyl)-thiazole-5-carboxylic acid]"
12,226,2-(5-Methoxy-benzoimidazol-1-yl)-4-phe-nyl-thiazole-5-car-boxylic acid; compoundwith 2-(6-methoxy-benzoimidazol-1-yl)-4-phenyl-thiazole-5-carboxylic acid [Example 15]
13,216,"COc1cc2ncn(-c3nc(-c4ccc(Cl)c(Cl)c4)c(C(=O)O)s3)c2cc1OC [Example 23, 4-(3,4-Dichloro-phenyl)-2-(5,6-dimethoxy-benzoimidazol-1-yl)-thiazole-5-carboxylic acid]"
14,127,"COc1cccc(-c2nc(-n3cnc4cc(OC)c(OC)cc43)sc2C(=O)O)c1 [Example 20, 2-(5,6-Dimethoxy-benzoimidazol-1-yl)-4-(3-methoxy-phenyl)-thiazole-5-carboxylic acid]"
15,125,"COc1cc2ncn(-c3nc(-c4ccc5c(c4)OCO5)c(C(=O)O)s3)c2cc1OC [Example 22, 4-Benzo[1,3]dioxol-5-yl-2-(5,6-dimethoxy-benzoimidazol-1-yl)-thiazole-5-carboxylic acid]"
16,107,"COc1cc2ncn(-c3nc(-c4ccccc4)c(C(=O)O)s3)c2cc1OC [Example 1, 2-(5,6-Dimethoxybenzoimidazol-1-yl)-4-phenylthiazole-5-carboxylic acid]"
17,87,"COc1cc2ncn(-c3nc(-c4ccc(F)c(Cl)c4)c(C(=O)O)s3)c2cc1OC [Example 19, 4-(3-Chloro-4-fluoro-phenyl)-2-(5,6-dimethoxy-benzoimidazol-1-yl)-thiazole-5-carboxylic acid]"
18,69,"COc1cc2ncn(-c3nc(-c4cccc(F)c4)c(C(=O)O)s3)c2cc1OC [Example 17, 2-(5,6-Dimethoxy-benzoimidazol-1-yl)-4-(3-fluoro-phenyl)-thiazole-5-carboxylic acid]"
19,68,"COc1cc2ncn(-c3nc(-c4cccc(C(C)C)c4)c(C(=O)O)s3)c2cc1OC [Example 24, 2-(5,6-Dimethoxy-benzoimidazol-1-yl)-4-(3-isopropyl-phenyl)-thiazole-5-carboxylic acid]"
20,25,"COc1cc2ncn(-c3nc(-c4cccc(Cl)c4)c(C(=O)O)s3)c2cc1OC [Example 31, 4-(3-Chloro-phenyl)-2-(5,6-dimethoxy-benzoimidazol-1-yl)-thiazole-5-carboxylic acid]"
